According to patent US6656906B1, “Hybrid polypeptides with enhanced pharmacokinetic properties” (Trimeris, Inc., priority 1998, dated 2003):
Where two headings read alike, the source gives them in different places. No end group written: not given here.

Experiments:
[1] = FIG.5; details: for half-life: CD, rat, plasma, iv, read-out: T1/2β (converted)
Source text: Table printed on a drawing sheet, FIG.5
The patent's description of the figure: FIG. 5.
First reader's note: The table is printed under a plasma concentration-time plot of the same two peptides, which is not copied.

[2] = system: RSV; test: Respiratory syncytial virus plaque reduction assay (Hep2 cells); type: cell-based
Procedure: All necessary dilutions of peptides were performed in clean, sterile 96-well TC plate. A total of eleven dilutions for each peptide and one control well containing no peptide were assembled. The final concentration range of peptide started at 50 μg/ml or 100 μg/ml, with a total of eleven two-fold dilutions. The RSV was prepared at a concentration of 100PFU/well in 100 μl 3% EMEM, as determined by a known titer of RSV. The virus is then added to all of the wells.
The media was removed from one sub-confluent 96-well plate of Hep2 cells. The material from the dilution plate was transferred onto the cell plates starting with row 1 and then transferring row 12, row 11, etc. until all rows were transferred. Plates were placed back into the incubator for 48 hours.
The cells were checked to ensure that syncytia were present in the control wells. Media was removed and approximately 50 μls of 0.25% Crystal Violet in methanol was added to each well. The wells were rinsed immediately in water to remove excess stain and allowed to dry. Using a dissecting microscope, the number of syncytia in each well was counted.

[3] = Rat pharmacokinetic studies, IV, fluorescence HPLC of plasma; type: in vivo, CD rats; details: for half-life relative to core peptide T786 / half-life relative to core peptide T1476: CD rats
Procedure: 250-300 g male CD rats, double jugular catheter, obtained from Charles River Laboratories were used. Peptides were injected in one jugular catheter in a volume of 200 μl of peptide solution (approximately 3.75 mg/ml), dosing solution concentration was determined using the Edelhoch method, (Edelhoch, 1967, Biochemistry 6:1948-1954) method and adjusted based on animal weight such that each animal received a dose of 2.5 mg/kg). Approximately 250-300 μl of blood was removed at predetermined time intervals (0, 15, 30 min and 1, 2, 4, 6, and 8 hours) and added to EDTA capiject tubes. Plasma was removed from pelleted cells upon centrifugation and either frozen or immediately processed for fluorescence HPLC analysis.
100 μl of sample plasma was added to 900 μl of precipitation buffer (acetonitrile, 1.0% TFA, detergent) resulting in precipitation of the majority of plasma proteins. Following centrifugation at 10,000 rpm for 10 min, 400 μl of the supernatant was removed and added to 600 μl of HPLC grade water. Serial dilutions were performed as dictated by concentration of peptide present in each sample in dilution buffer comprised of 40% precipitation buffer and 60% HPLC water. In addition to sample dilutions, serial dilutions of dosing solution were performed in buffer as well as in plasma and used to generate a standard curve relating peak area to known concentration of peptide. This curve was then used to calculate concentration of peptide in plasma taking into account all dilutions performed and quantity injected onto column.

[4] = target: M41Δ178 (a truncated gp41 ectodomain fusion protein lacking the T20 amino acid sequence)
[5] = system: HIV-1
[6] = system: HIV-1; remark: listed apart in the source
[7] = system: SIV isolate B670; test: Magi-CCR-5 infectivity assay; type: cell-based
[8] = system: HIV-2 NIHZ; test: virus mediated cell-cell fusion assay (chronically infected CEM cells mixed with uninfected Molt-4 cells); type: cell-based
[9] = system: HIV-1; test: Human PBMC infectivity/neutralization assay; type: cell-based
Procedure: The prototypic assay used cell lines where the primary isolate assay utilizes PBMC, obtained through Interstate Blood Bank, activated for 2-3 days with a combination of OKT3 (0.5 μg/ml) and CD28 antibodies (0.1 μg/ml). The target cells were banded on lymphocyte separation medium (LSM), washed, and frozen. Cells were thawed as required and activated as indicated above a minimum of 2-3 days prior to assay. In this 96-well format assay, cells were at a concentration of 2×10^6/ml in 5% IL-2 medium and a final volume of 100 μl. Peptide stock solutions were made in DPBS (1 mg/ml). Peptide dilutions were performed in 20% FBS RPM1 1640/5% IL-2 complete medium.

[10] = system: HIV-1 9320; test: In vivo HuPBMC-SCID mouse model of HIV-1 9320 infection; parameters: species or system SCID mice; details: 67 mg/kg total daily dose, IP, bid, 8 days
Procedure: Female SCID mice (5-7 weeks old) received 5-10×10^7 adult human PBMC injected intraperitoneally. Two weeks after reconstitution, mice were infected IP on day 0 with 10^3 TCID50 HIV-1 9320 (AZT-sensitive isolate A018). Treatment with peptides was IP, bid, beginning day −1 and continuing through day 6. The extent of infection in blood cells, splenocytes, lymph nodes, and peritoneal cells was assayed by quantitative co-culture with human PBMC blasts weekly for three consecutive weeks following animal exsanguinations and tissue harvest (day 7, approximately 12-18 hours following the last drug treatment). Co-culture supernatants were evaluated for HIV-1 p24 antigen production as a measure of virus infection (Immunotek Coulter kits and protocol).
Two weeks after reconstitution with HuPBMCs, mice were infected IP on day 0 with 10^3 TCID50 HIV-1 9320 passed in PBMCs (AZT-sensitive isolate A018). […] The extent of infection in blood cells, splenocytes, lymph nodes, and peritoneal cells was assayed by quantitative co-culture with human PBMC blasts weekly for three consecutive weeks following animal exsanguinations and tissue harvest (day 7, approx. 12 to 18 hours following last drug treatment). Co-culture supernatants were evaluated for HIV-1 p24 antigen production as a measure of virus infection.

[11] = target: M41Δ178 (a truncated gp41 ectodomain fusion protein lacking the T20 amino acid sequence); remark: listed apart in the source

CC[C@H](C)[C@H](NC(=O)[C@H](CCC(N)=O)NC(=O)[C@H](C)NC(=O)[C@H](CCC(N)=O)NC(=O)[C@H](CCC(=O)O)NC(=O)[C@H](CC(C)C)NC(=O)[C@H](CC(C)C)NC(=O)[C@H](C)NC(=O)[C@@H](NC(=O)[C@@H](NC(=O)[C@H](CCCCN)NC(=O)[C@H](CCC(N)=O)NC(=O)[C@H](CCC(=O)O)NC(=O)[C@H](Cc1c[nH]c2ccccc12)NC(=O)[C@H](CCC(=O)O)NC(=O)[C@H](CCC(N)=O)NC(=O)[C@H](Cc1c[nH]c2ccccc12)NC(C)=O)[C@@H](C)CC)[C@@H](C)O)C(=O)N[C@@H](CCC(N)=O)C(=O)N[C@@H](CCC(N)=O)C(=O)N[C@@H](CCC(=O)O)C(=O)N[C@@H](CCCCN)C(=O)N[C@@H](CC(N)=O)C(=O)N[C@@H](CCC(=O)O)C(=O)N[C@@H](Cc1ccc(O)cc1)C(=O)N[C@@H](CCC(=O)O)C(=O)N[C@@H](CC(C)C)C(=O)N[C@@H](CCC(N)=O)C(=O)N[C@@H](CCCCN)C(=O)N[C@@H](CC(C)C)C(=O)N[C@@H](CC(=O)O)C(=O)N[C@@H](CCCCN)C(=O)N[C@@H](Cc1c[nH]c2ccccc12)C(=O)N[C@@H](C)C(=O)N[C@@H](CO)C(=O)N[C@@H](CC(C)C)C(=O)N[C@@H](Cc1c[nH]c2ccccc12)C(=O)N[C@@H](CCC(=O)O)C(=O)N[C@@H](Cc1c[nH]c2ccccc12)C(=O)N[C@@H](Cc1ccccc1)C(N)=O [T1249A1]
AUC[0-8] [1]: 71.43 µg/h/mL | half-life [1]: 4.71 h

enfuvirtide [listing 1 of 2 here]
half-life [1]: 1.6 h

Ac-WQEWDEYDASISQVNEKINQALAYIREADELWAWF-NH2 [T1301, Ac-WQEWDEYDASISQVNEKINOALAYIREADELWA WF-NH2]
ability to inhibit RSV infection (plaque formation of HEp2 cells) [2]: inhibit RSV infection | half-life relative to core peptide T786 [3]: greatly enhanced half-life | half-life relative to core peptide T1476 [3]: greatly enhanced half-life

T20 (peptide)
Kd [4]: 1 to 2 nM

Ac-VYPSDEYDASISQVNEEINQALAYIRKADELLENV-NH2 [T786, RSV core peptide]
ability to inhibit RSV infection (plaque formation of HEp2 cells) [2]: able to inhibit RSV infection

enfuvirtide [listing 2 of 2 here]
EC-50 ([5]; HIV-1 9320): 11 | Vn/Vo = 0.1 ([5]; HIV-1 9320): 50 | EC-50 ([5]; HIV-1 301714 (subtype B, NSI)): 1065 | Vn/Vo = 0.1 ([5]; HIV-1 301714 (subtype B, NSI)): 4000 | EC-50 ([5]; HIV-1 G691-2 (AZT-R)): 13 | Vn/Vo = 0.1 ([5]; HIV-1 G691-2 (AZT-R)): 200 | EC-50 ([5]; HIV-1 IIIB): 42 | Vn/Vo = 0.1 ([5]; HIV-1 IIIB): 80 | EC-50 ([5]; HIV-1 pNL4-3): 166 | Vn/Vo = 0.1 ([5]; HIV-1 pNL4-3): 210 | EC-50 ([5]; HIV-1 pNL4-3 SM (T20-R)): 90 | Vn/Vo = 0.1 ([5]; HIV-1 pNL4-3 SM (T20-R)): 900 | EC-50 ([5]; HIV-1 pNL4-3 SM (T20-R) Duke): 410 | Vn/Vo = 0.1 ([5]; HIV-1 pNL4-3 SM (T20-R) Duke): 2600 | EC-50 ([5]; HIV-1 pNL4-3 STM (T20/T649-R)): >50000 | Vn/Vo = 0.1 ([5]; HIV-1 pNL4-3 STM (T20/T649-R)): >50000 | fusion inhibition ([6]; HIV-1 9320): 118.4 ng/mL | fusion inhibition ([6]; HIV-1 G691-2 (AZT-R)): 406.0 ng/mL | fusion inhibition ([6]; HIV-1 G762-3 (Pre-AZT)): 340.1 ng/mL | fusion inhibition ([6]; HIV-1 IIIB): 2.5 ng/mL | fusion inhibition ([6]; HIV-1 MN): 20.0 ng/mL | fusion inhibition ([6]; HIV-1 RF): 6.1 ng/mL | fusion inhibition ([6]; HIV-1 pNL4-3 SM (T20 Resistant)): 405.3 ng/mL | EC-50 [7]: 2313 | Vn/Vo = 0.1 [7]: >10000 | fusion inhibition [8]: 3610.0 ng/mL | Vn/Vo = 0.1 ([9]; HIV-1 9320): 6000 ng/mL | Vn/Vo = 0.1 ([9]; HIV-1 301593 (subtype B, SI)): 3500 ng/mL | Vn/Vo = 0.1 ([9]; HIV-1 301714 (subtype B, NSI)): 8000 ng/mL | Vn/Vo = 0.1 ([9]; HIV-1 302056 (subtype B, NSI)): 800 ng/mL | Vn/Vo = 0.1 ([9]; HIV-1 302077 (subtype A)): 3300 ng/mL | Vn/Vo = 0.1 ([9]; HIV-1 302143 (SI)): 1600 ng/mL | Vn/Vo = 0.1 ([9]; HIV-1 G691-2 (AZT-R)): 1300 ng/mL | Vn/Vo = 0.1 ([9]; HIV-1 IIIB, dose required to reduce virus titer by one log): 250 ng/mL | Vn/Vo = 0.1 ([9]; HIV-1 pNL4-3): 3500 ng/mL | Vn/Vo = 0.1 ([9]; HIV-1 pNL4-3 SM (T20-R)): >10000 ng/mL | infectious virus in blood or lymph tissues [10]: not detectable | virus in peritoneal washes and spleen preparation [10]: detected

WMEWDREINKYTSLIHSLIEESQNQQEKNEQELL [DP397]
inhibition of HIV-1 infection compared to T1249 ([5]; DH012-649 strain, at higher concentrations): increased inhibition of HIV-1 infection | inhibition of HIV-1 infection compared to T1249 ([5]; RF-649 strain): increased inhibition of HIV-1 infection | inhibition of HIV-1 infection compared to T649 ([5]; T649 resistant strains RF-649, DH012-649, 3′ETVQQQ, SIM-649): markedly increased inhibition of HIV-1 infection

Ac-WQAWDEYDASISDVNEKINQALAYIREADELWEWF-NH2 [T1303, RSV hybrid polypeptide]
ability to inhibit RSV infection (plaque formation of HEp2 cells) [2]: inhibit RSV infection | half-life relative to core peptide T1476 [3]: greatly enhanced half-life

Ac-WQAWDEYDASISQVNEKINQALAYIREADELWAWF-NH2 [T1302]
ability to inhibit RSV infection (plaque formation of HEp2 cells) [2]: inhibit RSV infection | half-life relative to core peptide T786 [3]: greatly enhanced half-life | half-life relative to core peptide T1476 [3]: greatly enhanced half-life

Ac-WQEWEQKIQHWSYGLRPGWASLWEWF-NH2 [T1324]
half-life compared to the T1323 core peptide ([3]; CD male rats): significantly increased half-life

WQEWEQKITALLEQAQIQQEKNEYELQKLDKWASLWEWF (not fully specified (N-terminus, C-terminus)) [T1249 (Ac-[…]-NH2)]
Kd [11]: 1 to 2 nM
